Test results published in PubChem BioAssay AID248 (DTP/NCI, 2004).
Values joined by “and” are separate entries in the source; they are usually repeats but may differ in a detail not shown here. Equal values may be shown once. Toxic doses and inconclusive results are not listed.

System: L1210 leukemia ip in BDF1 mice, survival T/C
Test: NCI In Vivo Anticancer Drug Screen. Data for tumor model L1210 Leukemia (intraperitoneal) in B6D2F1 (BDF1) mice
Settings: endpoint: mean survival time, higher = longer survival
Outline: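 Antitumor effect is assessed in tumor-bearing animals. Survival in the compound arm is compared with a vehicle-dosed control arm and expressed as their quotient.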

[1] = dose: 100.0 mg/kg/injection, schedule: Q04DX003 (ip), vehicle: Klucel (hydroxypropylcellulose) (HPC)
[2] = dose: 200.0 mg/kg/injection, schedule: Q04DX003 (ip), vehicle: Klucel (hydroxypropylcellulose) (HPC)
[3] = dose: 100.0 mg/kg/injection, schedule: Q04DX003 (ip), vehicle: saline with Tween-80

## C/C=C\COC(=O)COc1ccc(Cl)cc1
[1]
  T/C: 94 % of control
[2]
  T/C: 96 % of control
dose: 400.0 mg/kg/injection, schedule: Q04DX003 (ip), vehicle: Klucel (hydroxypropylcellulose) (HPC)
  T/C: 107 % of control

## COC(=O)CCc1nc(N)nc(N)n1
dose: 50.0 mg/kg/injection, schedule: Q01DX001 (ip), vehicle: carboxymethylcellulose (CMC)
  T/C: 98 % of control
dose: 100.0 mg/kg/injection, schedule: Q01DX001 (ip), vehicle: carboxymethylcellulose (CMC)
  T/C: 90 % of control
dose: 200.0 mg/kg/injection, schedule: Q01DX001 (ip), vehicle: carboxymethylcellulose (CMC)
  T/C: 101 % of control
dose: 400.0 mg/kg/injection, schedule: Q01DX001 (ip), vehicle: carboxymethylcellulose (CMC)
  T/C: 90 % of control

## C=CC(C)C/C(CC)=N\NC(N)=O (stereo not given)
dose: 75.0 mg/kg/injection, schedule: Q01DX001 (ip), vehicle: other
  T/C: 98 % of control
dose: 150.0 mg/kg/injection, schedule: Q01DX001 (ip), vehicle: other
  T/C: 103 % of control

## NC(=O)N/N=C/c1cccs1
dose: 25.0 mg/kg/injection, schedule: Q04DX003 (ip), vehicle: saline with Tween-80
  T/C: 95 % of control
dose: 50.0 mg/kg/injection, schedule: Q04DX003 (ip), vehicle: saline with Tween-80
  T/C: 103 % of control
[3]
  T/C: 106 % of control

## Clc1ccc(-c2nnc3c4ccccc4ccn23)cc1
dose: 100.0 mg/kg/injection, schedule: Q01DX001 (ip), vehicle: saline
  T/C: 104 % of control
dose: 200.0 mg/kg/injection, schedule: Q01DX001 (ip), vehicle: saline
  T/C: 93 % of control
dose: 400.0 mg/kg/injection, schedule: Q01DX001 (ip), vehicle: saline
  T/C: 98 % of control

## CCCC(=O)Nc1cc(C)ccc1N=Nc1ccc(C)cc1
dose: 100.0 mg/kg/injection, schedule: Q01DX001 (ip), vehicle: saline with Tween-80
  T/C: 95 % of control
dose: 100.0 mg/kg/injection, schedule: Q01DX009 (ip), vehicle: saline with Tween-80
  T/C: 97 % of control and 105 % of control
dose: 100.0 mg/kg/injection, schedule: Q04DX002 (ip), vehicle: saline with Tween-80
  T/C: 90 % of control and 92 % of control
[3]
  T/C: 100 % of control
dose: 200.0 mg/kg/injection, schedule: Q01DX001 (ip), vehicle: saline with Tween-80
  T/C: 103 % of control
dose: 200.0 mg/kg/injection, schedule: Q01DX009 (ip), vehicle: saline with Tween-80
  T/C: 88 % of control and 90 % of control
dose: 200.0 mg/kg/injection, schedule: Q04DX002 (ip), vehicle: saline with Tween-80
  T/C: 97 % of control and 92 % of control
dose: 200.0 mg/kg/injection, schedule: Q04DX003 (ip), vehicle: saline with Tween-80
  T/C: 97 % of control
dose: 400.0 mg/kg/injection, schedule: Q01DX001 (ip), vehicle: saline with Tween-80
  T/C: 98 % of control
dose: 400.0 mg/kg/injection, schedule: Q01DX009 (ip), vehicle: saline with Tween-80
  T/C: 97 % of control
dose: 400.0 mg/kg/injection, schedule: Q04DX002 (ip), vehicle: saline with Tween-80
  T/C: 97 % of control
dose: 400.0 mg/kg/injection, schedule: Q04DX003 (ip), vehicle: saline with Tween-80
  T/C: 97 % of control

## c1ccc(-n2cc(-c3nc(N4CC4)nc(N4CC4)n3)c3ccccc32)cc1
dose: 50.0 mg/kg/injection, schedule: Q01DX009 (ip), vehicle: Klucel (hydroxypropylcellulose) (HPC)
  T/C: 121 % of control
dose: 100.0 mg/kg/injection, schedule: Q01DX009 (ip), vehicle: Klucel (hydroxypropylcellulose) (HPC)
  T/C: 103 % of control
[1]
  T/C: 112 % of control
[2]
  T/C: 118 % of control

## NC(=S)N/N=C\c1nccc2c(N)cccc12
dose: 6.25 mg/kg/injection, schedule: Q01DX009 (ip), vehicle: saline with Tween-80
  T/C: 122 % of control
dose: 50.0 mg/kg/injection, schedule: Q01DX009 (ip), vehicle: saline with Tween-80
  T/C: 187 % of control

## CC(C)=CC[P+](c1ccccc1)(c1ccccc1)c1ccccc1
dose: 3.13 mg/kg/injection, schedule: Q01DX009 (ip), vehicle: saline
  T/C: 111 % of control
dose: 6.25 mg/kg/injection, schedule: Q01DX009 (ip), vehicle: saline
  T/C: 106 % of control
dose: 12.5 mg/kg/injection, schedule: Q01DX009 (ip), vehicle: saline
  T/C: 100 % of control and 106 % of control
dose: 25.0 mg/kg/injection, schedule: Q01DX001 (ip), vehicle: saline
  T/C: 102 % of control
dose: 25.0 mg/kg/injection, schedule: Q01DX009 (ip), vehicle: saline
  T/C: 98 % of control
dose: 50.0 mg/kg/injection, schedule: Q01DX001 (ip), vehicle: saline
  T/C: 90 % of control
dose: 50.0 mg/kg/injection, schedule: Q01DX009 (ip), vehicle: saline
  T/C: 98 % of control and 90 % of control
